# Experimental data from patent US20070027143A1, “Novel substituted 2,3-benzodiazepine derivatives” (priority 2003, published 2007).
row,SMILES,melting point [°C]
1,"C/C=C/c1nnc(N2N=C(c3ccc(N)c(C)c3)c3cc4c(cc3C[C@H]2C)OCO4)s1 [Example 177, (R)-5-(4-Amino-3-methylphenyl)-8-methyl-7-{5-[1-(1E)-propen-1-yl]-1,3,4-thiadiazol-2-yl}-8,9-dihydro-7H-1,3-dioxolo[4,5-h][2,3]benzodiazepine]",139 to 143
2,"CC(=O)Nc1ccc(C2=NN(c3nnc(C)s3)[C@H](C)Cc3cc4c(cc32)OCO4)cc1 [Example 130, (R)-5-(4-Acetylaminophenyl)-8-methyl-7-(5-methyl-1,3,4-thiadiazol-2-yl)-8,9-dihydro-7H-1,3-dioxolo-[4,5-h][2,3]benzodiazepine]",276 to 277
3,"CC1Cc2ccc(Cl)cc2C(c2ccc(N)cc2)=NN1c1nncs1 (racemic) [Example 93, (±)-1-(4-Aminophenyl)-8-chloro-4-methyl-3-(1,3,4-thiadiazol-2-yl)-4,5-dihydro-3H-[2,3]benzodiazepine]",125 to 128
4,"Cc1csc(N2N=C(c3ccc(N)cc3)c3cc(Cl)ccc3CC2C)n1 (racemic) [Example 78, (±)-1-(4-Aminophenyl)-8-chloro-4-methyl-3-(4-methyl-thiazol-2-yl)-4,5-dihydro-3H-[2,3]benzodiazepine]",173 to 175
5,"CC1=NN=C(N2N=C(c3ccc(N)cc3)c3cc4c(cc3CC2C)OCO4)SC1 (racemic) [Example 99, (±)-5-(4-Aminophenyl)-8-methyl-7-(5-methyl-6H-1,3,4-thiadiazin-2-yl)-8,9-dihydro-7H-1,3-dioxolo-[4,5-h][2,3]benzodiazepine]",154 to 157
6,"Cc1nnc(N2N=C(c3ccc(N)c(C)c3)c3cc4c(cc3CC2C)OCO4)s1 (racemic) [Example 95, (±)-5-(4-Amino-3-methylphenyl)-8-methyl-7-(5-methyl-1,3,4-thiadiazol-2-yl)-8,9-dihydro-7H-1,3-dioxolo-[4,5-h][2,3]benzodiazepine]",140 to 144
7,"Cc1nnc(N2N=C(c3ccc(N)cc3)c3cc(Cl)ccc3CC2C)s1 (racemic) [Example 94, (±)-1-(4-Aminophenyl)-8-chloro-4-methyl-3-(5-methyl-1,3,4-thiadiazol-2-yl)-4,5-dihydro-3H-[2,3]benzodiazepine]",131 to 133
8,"CCc1nnc(N2N=C(c3ccc([N+](=O)[O-])cc3)c3cc4c(cc3C[C@H]2C)OCO4)s1 [Example 31, (R)-7-(5-Ethyl-1,3,4-thiadiazol-2-yl)-8-methyl-5-(4-nitrophenyl)-8,9-dihydro-7H-1,3-dioxolo[4,5-h][2,3]benzodiazepine]",105
9,"CC1Cc2cc3c(cc2C(c2ccc(N)cc2)=NN1c1nnc(C(F)(F)F)s1)OCO3 (racemic) [Example 90, (±)-5-(4-Aminophenyl)-8-methyl-7-(5-trifluoromethyl-1,3,4-thiadiazol-2-yl)-8,9-dihydro-7H-1,3-dioxolo-[4,5-h][2,3]benzodiazepine]",216 to 218
10,"Cc1cc(C2=NN(c3nccs3)[C@H](C)Cc3cc4c(cc32)OCO4)ccc1N [Example 164, (R)-5-(4-Amino-3-methylphenyl)-8-methyl-7-(thiazol-2-yl)-8,9-dihydro-7H-1,3-dioxolo-[4,5-h][2,3]benzodiazepine]",124 to 127
11,"Cc1nnc(N2N=C(c3ccc(N)cc3)c3cc4c(cc3C[C@H]2C)OCO4)s1 (hydrate or solvate) [Example 86, (R)-5-(4-Aminophenyl)-8-methyl-7-(5-methyl-1,3,4-thiadiazol-2-yl)-8,9-dihydro-7H-1,3-dioxolo-[4,5-h][2,3]benzodiazepine]",168 to 170
12,"CC1SC(N2N=C(c3ccc(N)cc3)c3cc4c(cc3CC2C)OCO4)=NC1=O (racemic) [Example 72, (±)-5-(4-Aminophenyl)-7-(4,5-dihydro-5-methyl-4-oxo-thiazol-2-yl)-8-methyl-8,9-dihydro-7H-1,3-dioxolo-[4,5-h][2,3]benzodiazepine]",200 to 204
13,"CC(=O)Nc1ccc(C2=NN(c3ncc(C)s3)C(C)Cc3cc4c(cc32)OCO4)cc1 (racemic) [Example 120, (±)-5-(4-Acetylaminophenyl)-8-methyl-7-(5-methyl-thiazol-2-yl)-8,9-dihydro-7H-1,3-dioxolo-[4,5-h][2,3]benzodiazepine]",176 to 179
14,"CSCc1nnc(N2N=C(c3ccc(N)c(C)c3)c3cc4c(cc3C[C@H]2C)OCO4)s1 [Example 174, (R)-5-(4-Amino-3-methylphenyl)-8-methyl-7-(5-methylthiomethyl-1,3,4-thiadiazol-2-yl)-8,9-dihydro-7H-1,3-dioxolo[4,5-h][2,3]benzodiazepine]",177 to 180
15,"CC(=O)Nc1ccc(C2=NN(c3ccc(Cl)nn3)C(C)Cc3cc4c(cc32)OCO4)cc1 (racemic) [Example 129, (±)-5-(4-Acetylaminophenyl)-7-(3-chloro-pyridazin-6-yl)-8-methyl-8,9-dihydro-7H-1,3-dioxolo-[4,5-h][2,3]benzodiazepine]",164 to 170
16,"CC1Cc2ccc(Cl)cc2C(c2ccc(N)cc2)=NN1c1nccs1 (racemic) [Example 77, (±)-1-(4-Aminophenyl)-8-chloro-4-methyl-3-(2-thiazolyl)-4,5-dihydro-3H-[2,3]benzodiazepine]",104 to 107

# Further lines, results first:
row,melting point [°C],SMILES
1,148 to 150,"Cc1nnc(N2N=C(c3cc(C)c(N)c(C)c3)c3cc4c(cc3C[C@H]2C)OCO4)o1 [Example 191, (R)-5-(4-Amino-3,5-dimethylphenyl)-8-methyl-7-(5-methyl-1,3,4-oxadiazol-2-yl)-8,9-dihydro-7H-1,3-dioxolo[4,5-h][2,3]benzodiazepine]"
2,225 to 227,"Cc1cc(C2=NN(c3nccs3)C(C)Cc3cc4c(cc32)OCO4)ccc1N (racemic) [Example 75, (±)-5-(4-Amino-3-methylphenyl)-8-methyl-7-(2-thiazolyl)-8,9-dihydro-7H-1,3-dioxolo-[4,5-h][2,3]benzodiazepine]"
3,124 to 126,CC1=Cc2cc3c(cc2C(c2ccc(N)cc2)=NN1c1ncon1)OCO3.Cl
4,148 to 150,"Cc1ncc(N2N=C(c3ccc(N)cc3)c3cc4c(cc3CC2C)OCO4)o1 (racemic) [Example 187, (±)-5-(4-Aminophenyl)-8-methyl-7-(2-methyl-1,3-oxazol-5-yl)-8,9-dihydro-7H-1,3-dioxolo-[4,5-h][2,3]benzodiazepine]"
5,190 to 191,"Cc1csc(N2N=C(c3ccc(N)cc3)c3cc4c(cc3CC2C)OCO4)n1 (racemic) [Example 63, (±)-5-(4-Aminophenyl)-8-methyl-7-(4-methyl-thiazol-2-yl)-8,9-dihydro-7H-1,3-dioxolo-[4,5-h][2,3]benzodiazepine]"
6,145 to 150,"CC1Cc2cc3c(cc2C(c2ccc(N)cc2)=NN1C1=NCCS1)OCO3 (racemic) [Example 68, (±)-5-(4-Aminophenyl)-7-(4,5-dihydro-thiazol-2-yl)-8-methyl-8,9-dihydro-7H-1,3-dioxolo-[4,5-h][2,3]benzodiazepine]"
7,126,"CC(=O)Nc1ccc(C2=NN(c3nccs3)[C@H](C)Cc3cc4c(cc32)OCO4)cc1 [Example 123, (R)-5-(4-Acetylaminophenyl)-8-methyl-7-(2-thiazolyl)-8,9-dihydro-7H-1,3-dioxolo[4,5-h][2,3]benzodiazepine]"
8,> 360,"CC1Cc2cc3c(cc2C(c2ccc(N)cc2)=NN1c1nnn[nH]1)OCO3 (racemic) [Example 107, (±)-5-(4-Aminophenyl)-8-methyl-7-(5-tetrazolyl)-8,9-dihydro-7H-1,3-dioxolo[4,5-h][2,3]benzodiazepine]"
9,182 to 184,"Cc1csc(N2N=C(c3ccc(N)cc3)c3cc(Cl)c(Cl)cc3CC2C)n1 (racemic) [Example 81, (±)-1-(4-Aminophenyl)-7,8-dichloro-3-(4-methyl-thiazol-2-yl)-4-methyl-4,5-dihydro-3H-[2,3]benzodiazepine]"
10,226 to 228,"CC1Cc2cc3c(cc2C(c2ccc(N)cc2)=NN1C1=NC(=O)CCS1)OCO3 (racemic) [Example 73, (±)-5-(4-Aminophenyl)-7-(5,6-dihydro-4-oxo-4H-1,3-thiazin-2-yl)-8-methyl-8,9-dihydro-7H-1,3-dioxolo-[4,5-h][2,3]benzodiazepine]"
11,125 to 128,"Cc1cc(C2=NN(C3=NCCS3)[C@H](C)Cc3cc4c(cc32)OCO4)ccc1N [Example 163, (R)-5-(4-Amino-3-methylphenyl)-8-methyl-7-(4,5-dihydro-thiazol-2-yl)-8,9-dihydro-7H-1,3-dioxolo-[4,5-h][2,3]benzodiazepine]"
12,142 to 145,"Cc1cc(C2=NN(c3nnc(CO)s3)[C@H](C)Cc3cc4c(cc32)OCO4)ccc1[N+](=O)[O-] [Example 140, (R)-7-(5-Hydroxymethyl-1,3,4-thiadiazol-2-yl)-8-methyl-5-(3-methyl-4-nitrophenyl)-8,9-dihydro-7H-1,3-dioxolo[4,5-h][2,3]benzodiazepine]"
13,217 to 224,"CCCCCCc1nnc(N2N=C(c3ccc([N+](=O)[O-])c(C)c3)c3cc4c(cc3C[C@H]2C)OCO4)s1 [Example 147, (R)-7-(5-Hexyl-1,3,4-thiadiazol-2-yl)-8-methyl-5-(3-methyl-4-nitrophenyl)-8,9-dihydro-7H-1,3-dioxolo[4,5-h][2,3]benzodiazepine]"
14,185 to 187,"Cc1nc(N2N=C(c3ccc(N)cc3)c3cc4c(cc3CC2C)OCO4)n(C)n1 (racemic) [Example 117, (±)-5-(4-Aminophenyl)-8-methyl-7-(2,5-dimethyl-2H-1,2,4-triazol-3-yl)-8,9-dihydro-7H-1,3-dioxolo-[4,5-h][2,3]benzodiazepine]"
15,240 to 243,"Cc1cc(C2=NN(C3=NN=C(C(=O)OCc4ccccc4)[SH]3CN)[C@H](C)Cc3cc4c(cc32)OCO4)ccc1[N+](=O)[O-] (stereo partly drawn) [Example 145, (R)-7-(5-Benzyloxycarbonyl-aminomethyl-1,3,4-thiadiazol-2-yl)-8-methyl-5-(3-methyl-4-nitrophenyl)-8,9-dihydro-7H-1,3-dioxolo[4,5-h][2,3]benzodiazepine]"
